The conditions of data set [1]: in vivo; cited from earlier work.
Data set [2] in a line: Pharmacokinetics and tissue distribution (lung, plasma, heart, kidney) of co-solvent formulations, bolus intratracheal aerosol. It counts as in vivo, Sprague-Dawley rats. Particulars: for Analyte in lung tissue, Mean: about 4 mg/kg pirfenidone IT bolus aerosol. Here is the method: Selected formulations were prepared for pharmacokinetic analysis following aerosol delivery to rat lung. […] Formulations prepared for this study are outlined in Table 9. […] The sample was agitated until completely dissolved. […] Filtered samples were analyzed by HPLC.

The subject of a further data set is breast cancer stem cells. Particulars: mouse, in vivo; cited from earlier work.
For data set [3], the system named is relapsed/refractory multiple myeloma. Particulars: cited from earlier work.
The test system of data set [4] is sol elastase activity of CF sputum. The conditions noted are these: direct treatment of unprocessed CF sputum; cited from earlier work.
In the next data set the test system is PI3K. The conditions noted are these: cited from earlier work.
The target in the next data set is mTOR (Homo sapiens, UniProt P42345). The conditions noted are these: cited from earlier work.
A further data set relates to p110-γ and p110-δ. The conditions noted are these: versus the other isoforms; cited from earlier work.
Data set [5] has as its system EGFR mutation positive patients. Particulars: cited from earlier work.
For another data set, the system named is cancer patients. The conditions noted are these: cited from earlier work.

Results on eleven molecules are retold here after patent US11452718B2 (AVALYN PHARMA INC., priority 2012, dated 2022).

For the molecule `O=C(O)c1ccc(=O)n(-c2ccccc2)c1` [5-carboxy-pirfenidone], in [1], the “share of urinary excretion being the primary metabolite” value is listed as 95%. The “appearance of metabolite after direct aerosol administration to the lung” value in [2] (primary pirfenidone liver metabolite) is listed as “delayed appearance”.

In the case of `O=C(O)c1ccc(=O)n(-c2ccccc2)c1`, the “Analyte in lung tissue, Mean” value was found to be 0.00 μg/gram in data set [2] (0 MIN); 0.12 μg/gram in [2] (Group 1, 0.0333 hr); 0.13 μg/gram in data set [2] (Group 1, 0.0667 hr); 0.48 μg/gram in data set [2] (Group 1, 0.1 hr); 0.49 μg/gram in data set [2] (Group 1, 0.167 hr); 0.96 μg/gram in [2] (Group 1, 0.333 hr). Moreover, the “Analyte in lung tissue, Mean” value in data set [2] (Group 1, 0.667 hr) is on record as 0.96 μg/gram; in [2] (Group 1, 1 hr), 0.73 μg/gram; in data set [2] (Group 1, 2 hr) it was 0.21 μg/gram; in data set [2] (Group 1, 2.5 hr), 0.10 μg/gram; in data set [2] (Group 1, […]), 0.48 μg/gram; in data set [2] (Group 3, 0.0333 hr) it was 0.05 μg/gram. For the same molecule, the “Analyte in lung tissue, Mean” value in data set [2] (Group 3, 0.0667 hr) came out at 0.36 μg/gram; in [2] (Group 3, 0.1 hr), 0.55 μg/gram; in data set [2] (Group 3, 0.167 hr) it was 0.86 μg/gram; in data set [2] (Group 3, 0.333 hr) it was 1.09 μg/gram; in data set [2] (Group 3, 0.667 hr), 0.81 μg/gram; in data set [2] (Group 3, 1 hr), 0.70 μg/gram. Also, the “Analyte in lung tissue, Mean” value in [2] (Group 3, 2 hr) is 0.32 μg/gram; in [2] (Group 3, 2.5 hr) it was 0.14 μg/gram; in [2] (Group 3, […]), 0.52 μg/gram; in data set [2] (Group 5, 0.0333 hr), 0.17 μg/gram; in [2] (Group 5, 0.0667 hr) it was 0.42 μg/gram; in [2] (Group 5, 0.1 hr), 0.35 μg/gram. Further, the “Analyte in lung tissue, Mean” value is recorded as 0.53 μg/gram in data set [2] (Group 5, 0.167 hr); 1.32 μg/gram in data set [2] (Group 5, 0.333 hr); 0.96 μg/gram in data set [2] (Group 5, 0.667 hr); 0.75 μg/gram in data set [2] (Group 5, 1 hr); 0.18 μg/gram in data set [2] (Group 5, 2 hr); 0.10 μg/gram in data set [2] (Group 5, 2.5 hr). Besides, the “Analyte in lung tissue, Mean” value in data set [2] (Group 5, […]) is recorded as 0.45 μg/gram; in data set [2] (Group 6, 0.0333 hr), 0.17 μg/gram; in data set [2] (Group 6, 0.0667 hr), 0.43 μg/gram; in data set [2] (Group 6, 0.1 hr), 0.37 μg/gram; in [2] (Group 6, 0.167 hr), 0.64 μg/gram; in [2] (Group 6, 0.333 hr), 0.94 μg/gram. For the same molecule, the “Analyte in lung tissue, Mean” value is reported as 0.92 μg/gram in data set [2] (Group 6, 0.667 hr); 0.78 μg/gram in [2] (Group 6, 1 hr); 0.24 μg/gram in data set [2] (Group 6, 2 hr); 0.14 μg/gram in data set [2] (Group 6, 2.5 hr); 0.43 μg/gram in [2] (Group 6, […]).

As to `CC[C@@H](C(=O)[C@@H](C)[C@@H](O)[C@H](C)[C@@H]1O[C@@H]([C@@H](CC)C(=O)O)CC[C@@H]1C)[C@H]1O[C@]2(C=C[C@@H](O)[C@]3(CC[C@@](C)([C@H]4CC[C@](O)(CC)[C@H](C)O4)O3)O2)[C@H](C)C[C@@H]1C` [Salinomycin], the “effectiveness relative to paclitaxel” value in the data set with breast cancer stem cells is on record as “at least 100 times”.

Take `CC(C)C[C@H](NC(=O)[C@H](Cc1ccccc1)NC(=O)c1cnccn1)B(O)O` [Bortezomib]: the “patients with peripheral neuropathy” value in data set [3] (human, in vivo) was 30%. Also, the “time to peak concentrations” value in data set [3] (intravenous administration) is reported as “about 30 minutes”.

Regarding DNase, the “increase of elastase activity” value in [4] is 190%.

The term IC50 denotes the concentration that gives 50% inhibition. With `CS(=O)(=O)N1CCN(Cc2cc3nc(-c4cccc5[nH]ncc45)nc(N4CCOCC4)c3s2)CC1` [GDC-0941], the IC50 in the data set with PI3K is […].

For `Cc1c(CN2CCN(S(C)(=O)=O)CC2)sc2c(N3CCOCC3)nc(-c3cnc(N)nc3)nc12` [GNE-477], on mTOR, the IC50 was 0.021 µM.

Regarding `Nc1nc(N)c2nc(-c3cccc(O)c3)c(-c3cccc(O)c3)nc2n1` [TG100-115], the “better potency against p110-γ and p110-δ” value with p110-γ and p110-δ is on record as 5-10 fold.

Consider `C#Cc1cccc(Nc2ncnc3cc(OCCOC)c(OCCOC)cc23)c1` [erlotinib], for which the response rate result in data set [5] (EGFR mutation positive patients) is listed as “approximately 60%”. The “time to development of resistance from the start of treatment” value in data set [5] (human, in vivo) is listed as 8-12 months.

With `N#CC1(c2ccc(NC(=O)c3cccnc3NCc3ccncc3)cc2)CCCC1` [Apatinib], the dose limiting toxicities in the data set with cancer patients (1000 mg/day) is 3 of 3. In the data set on cancer patients (65 cancer patients, Phase I/II), the complete response was 1.54%, the partial response was 12.31%, the progressive disease is recorded as 20% and the stable disease is given as 66.15%. Moreover, the well tolerated dose entry in the data set on cancer patients (daily for 28 days) is recorded as “below 750 mg/day”. Further, the maximum tolerated dose in the data set with cancer patients (human, in vivo) is listed as 850 mg/day.

B1: reduced rhTrx: stable reduced form of recombinant human thioredoxin (protein, UniProt P10599 2-105, looked up)
Thioredoxin: VKQIESKTAFQEALDAAGDKLVVVDFSATWCGPCKMIKPFFHSLSEKYSNVIFLEVDVDDCQDVASECEVKCMPTFQFFKKGQKVGEFSGANKEKLEATINELV
modifications: reduced form
On to B1, for which, in data set [4], the “increase of elastase activity” value was 60%.
